Assay results reported in PubChem BioAssay AID1963830 (Molecular Pharmacology Branch, DTP, NCI, 2024).

System: 922993-354-T-J3-PDC complex spheroid viability
Assay: Anticancer human tumor 922993-354-T-J3-PDC patient-derived endometrial carcinoma cell line growth inhibition [POLQ]
Conditions: for IC50: curve of first compound; for viability, T/C: stronger effect = lower value
Description: Multicellular complex tumor spheroid response to Polymerase (POL) inhibitors (novobiocin, ART-558, RP6685) in combination with a variety of drugs and investigational agents in selected tumor cell lines
The POL inhibitors (novobiocin, ART-558, and RP6685) were evaluated both individually and in combination with standard of care and investigational anticancer small molecules within a complex spheroid model of solid tumors. . Complex spheroids include a stromal component modeled by human endothelial cells (HUVEC) and fibroblasts modeled by human mesenchymal stem cells (MSCs). The concentration ranges selected for each drug and investigational agent were based upon clinically achievable concentrations if the clinical Cmax of the agent was known.
Compounds. The drugs and investigational agents: novobiocin (NSC847541), ART-558 (NSC835418), RP-6685 (NSC848927), peposertib (NSC802822), ceralasertib (NSC780249), elimusertib (NSC800525), camonsertib (NSC841442), AZD-1390 (NSC803789), olaparib (NSC753686), talazoparib (NSC767125), rucaparib (NSC756644), sotorasib (NSC818433), MRTX-1133 (NSC836407), SN-38 (NSC673596), topotecan (NSC609699), epotoside (NSC141540), doxorubicin (NSC123127), gemcitabine (NSC613327), 5-fluorouracil (NSC19893), paclitaxel (NSC125973), vemurafenib (NSC761431), MSA-2 (NSC828583), SN-011 (NSC837082), adavosertib (NSC754352), prexasertib (NSC758257), carboplatin (NSC241240) and oxaliplatin (NSC266046), were obtained from the National Cancer Institute (NCI) Developmental Therapeutics Program Chemical Repository (21). The FDA-approved anticancer drug set is available from the Developmental Therapeutics Program at https://dtp.cancer.gov/organization/dscb/obtaining/. […] The stock solutions were prepared in dimethyl sulfoxide (DMSO, Sigma-Aldrich, St. Louis, MO, cat. D2650), except for the platinum compounds which were prepared in saline (Quality Biological, Gaithersburg, MD, cat. 114-055-101), at 800-fold the tested concentration and stored at -70 degrees C prior to their use. All drugs and investigational agents were tested over a range starting from a high concentration at or near the clinical Cmax and decreasing in half-log increments. If the clinical Cmax for an agent had not been determined, the highest concentration tested was 10 microM, except for SN-38, which was tested at a high concentration of 1 microM.
Cell Culture. All cells were maintained in an incubator at 37 degrees C and 5% CO2 with 95% humidity. The PDC lines were cultured according to standard operating procedures established by the NCI PDMR (https://pdmr.cancer.gov). Table 3 of the manuscript, lists the cell lines along with the number of the three cell types plated to form the mct-spheroids and media for tumor cell growth. After thawing, all PDC lines, except 997537-175-T-J1-PDC and 415267-285-R-J2-PDC, were cultured in Matrigel-coated flasks prepared with a working solution of 1X Ham's F-12 nutrient mix, without supplementation (Thermo Fisher Scientific, cat. 11765054), 100 U/mL penicillin-streptomycin (Thermo Fisher Scientific, cat. 15140122), and 2.5% Matrigel (Corning Inc., Corning, NY, cat. 354248) for the first three passages. The two PDC lines 997537-175-T-J1-PDC and 415267-285-R-J2-PDC were cultured on uncoated flasks. The 857933-349-R-J2-PDC line was cultured in 6C/Colon 1B media containing advanced DMEM/F-12 (Thermo Fisher Scientific, cat. 12634028), 10 mM HEPES (Thermo Fisher Scientific, cat. 15630080), 1X GlutaMAX supplement (Thermo Fisher Scientific, cat. 35050061), 0.1 mg/mL primocin (InvivoGen, San Diego, CA, cat. ant-pm-2), 10% defined fetal bovine serum, heat inactivated (HyClone Laboratories Inc., Logan, UT, cat. SH30070.03HI), 50% L-WRN conditioned media (ATCC, cat. CRL-3276), 1.25 mM N-Acetyl-L-cysteine (Sigma-Aldrich, cat. A9165), 10 mM nicotinamide (Sigma-Aldrich, cat. N0636), 1X B-27 supplement (Thermo Fisher Scientific, cat. 17504044), 1X N-2 supplement (Thermo Fisher Scientific, cat. […]
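Note: spheroids exposed to the agents for one week.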
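Throughout, for viability, T/C: 100% = DMSO vehicle control wells.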

Work on `O=c1[nH]cc(F)c(=O)[nH]1` + COC1C(OC(N)=O)C(O)C(Oc2ccc3c(O)c(NC(=O)c4ccc(O)c(CC=C(C)C)c4)c(=O)oc3c2C)OC1(C)C yielded an IC50 (second compound 0.0316 µM) of 2.52 µM, an IC50 (second compound 0.1 µM) of 2.29 µM and an IC50 (second compound 0.316 µM) of 2.15 µM. For the same compound, the IC50 (second compound 1 µM) was 2.25 µM, the IC50 (second compound 3.16 µM) was 2.09 µM and the IC50 (second compound 10 µM) was 2.1 µM. For the same compound, the viability, T/C (second compound 0.0316 µM, first compound 0.0316 µM) was 109%, the viability, T/C (second compound 0.0316 µM, first compound 0.1 µM) was 100% and the viability, T/C (second compound 0.0316 µM, first compound 0.316 µM) was 108%. It also gave a viability, T/C (second compound 0.0316 µM, first compound 1 µM) of 108%, a viability, T/C (second compound 0.0316 µM, first compound 3.16 µM) of 36.1% and a viability, T/C (second compound 0.0316 µM, first compound 10 µM) of 16%. For the same compound, the viability, T/C (second compound 0.1 µM, first compound 0.0316 µM) was 105%, the viability, T/C (second compound 0.1 µM, first compound 0.1 µM) was 107% and the viability, T/C (second compound 0.1 µM, first compound 0.316 µM) was 95.2%. It also gave a viability, T/C (second compound 0.1 µM, first compound 1 µM) of 99.6%, a viability, T/C (second compound 0.1 µM, first compound 3.16 µM) of 30.7% and a viability, T/C (second compound 0.1 µM, first compound 10 µM) of 14.9%. For the same compound, the viability, T/C (second compound 0.316 µM, first compound 0.0316 µM) was 105%, the viability, T/C (second compound 0.316 µM, first compound 0.1 µM) was 94.9% and the viability, T/C (second compound 0.316 µM, first compound 0.316 µM) was 105%. For the same compound, the viability, T/C (second compound 0.316 µM, first compound 1 µM) was 87.9%, the viability, T/C (second compound 0.316 µM, first compound 3.16 µM) was 30.8% and the viability, T/C (second compound 0.316 µM, first compound 10 µM) was 13.1%. For the same compound, the viability, T/C (second compound 1 µM, first compound 0.0316 µM) was 108%, the viability, T/C (second compound 1 µM, first compound 0.1 µM) was 98.9% and the viability, T/C (second compound 1 µM, first compound 0.316 µM) was 106%. The viability, T/C (second compound 1 µM, first compound 1 µM) was 107%, the viability, T/C (second compound 1 µM, first compound 3.16 µM) was 26.9% and the viability, T/C (second compound 1 µM, first compound 10 µM) was 13.1%. The viability, T/C (second compound 3.16 µM, first compound 0.0316 µM) was 91.3%, the viability, T/C (second compound 3.16 µM, first compound 0.1 µM) was 96.7% and the viability, T/C (second compound 3.16 µM, first compound 0.316 µM) was 108%. The viability, T/C (second compound 3.16 µM, first compound 1 µM) was 88.2%, the viability, T/C (second compound 3.16 µM, first compound 3.16 µM) was 28.2% and the viability, T/C (second compound 3.16 µM, first compound 10 µM) was 13.8%. The viability, T/C (second compound 10 µM, first compound 0.0316 µM) was 94.5%, the viability, T/C (second compound 10 µM, first compound 0.1 µM) was 91.9% and the viability, T/C (second compound 10 µM, first compound 0.316 µM) was 86%. It also gave a viability, T/C (second compound 10 µM, first compound 1 µM) of 83.7%, a viability, T/C (second compound 10 µM, first compound 3.16 µM) of 31.6% and a viability, T/C (second compound 10 µM, first compound 10 µM) of 18.1%.
